Literature values as cited in US20100120780A1, “TREATMENTS FOR PREMATURE EJACULATION IN HUMANS” (priority 2007, published 2010).
Structures can show the parent of a compound that is named as a salt.

Experiments:
[1] = for accumulation: multiple dose treatment with tramadol
μ-opiate receptors = μ-opiate receptors (Homo sapiens, UniProt P35372)
[2] = rats
[3] = oral administration, Viagra formulation
[4] = target: phosphodiesterase type 5 (PDE5) (Homo sapiens, UniProt O76074); conditions: PDE5 vs PDE6
[5] = 0.2M sodium chloride

Sequence of μ-opiate receptors (P35372 whole entry): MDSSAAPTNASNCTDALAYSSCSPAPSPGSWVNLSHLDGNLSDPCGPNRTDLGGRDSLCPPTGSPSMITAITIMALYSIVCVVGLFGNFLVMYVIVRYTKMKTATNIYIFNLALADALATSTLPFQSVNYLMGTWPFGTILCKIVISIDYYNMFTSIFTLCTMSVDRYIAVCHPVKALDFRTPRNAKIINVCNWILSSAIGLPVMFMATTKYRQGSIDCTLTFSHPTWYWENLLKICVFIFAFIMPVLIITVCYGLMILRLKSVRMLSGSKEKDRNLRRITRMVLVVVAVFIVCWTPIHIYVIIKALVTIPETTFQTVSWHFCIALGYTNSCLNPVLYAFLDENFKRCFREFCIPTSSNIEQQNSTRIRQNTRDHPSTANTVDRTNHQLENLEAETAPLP

COc1cccc(C2(O)CCCCC2CN(C)C)c1 (racemic) [tramadol, (+/−)-trans (RR,SS)-2-[(di-methylamino)methyl]-1-(3-methoxyphenyl)cyclohexanol]
accumulation [1]: approximately 2 fold
time to peak serum concentrations ([1]; oral administration): ≤ 2 h
duration of the analgesic effect (single oral dose of tramadol 100 mg): about 6 hours
affinity for μ-opiate receptors, fold less than codeine (μ-opiate receptors; relative to codeine): 10 fold
affinity for μ-opiate receptors, fold less than d-propoxyphene (μ-opiate receptors; relative to d-propoxyphene): 100 fold
affinity for μ-opiate receptors compared to dextromethorphan (μ-opiate receptors; relative to dextromethorphan): equivalent
affinity for μ-opiate receptors, fold less than morphine (μ-opiate receptors; relative to morphine): 6,000 fold

COc1cc(CNC(=O)CCCCC=CC(C)C)ccc1O [capsaicin, 8-methyl-N-vanillyl-6-nonenamide]
time to distribution to the brain, spinal cord, liver and blood ([2]; intravenous administration): ≤ 20 min
absorption in the jejunum ([2]; oral dosing, after 3 hours): 85%

CCCc1nn(C)c2c(=O)[nH]c(-c3cc(S(=O)(=O)N4CCN(C)CC4)ccc3OCC)nc12 [sildenafil, 1-[[3-(6,7-dihydro-1-methyl-7-oxo-3-propyl-1H-pyrazolo[4,3-d]pyrimidin-5-yl)-4-ethoxyphenyl]sulfonyl]-4-methyl piperazine]
absolute bioavailability [3]: about 40%
potency for PDE5 compared to PDE6 [4]: about 10 fold

CN(C)C[C@H]1CCCC[C@]1(O)c1cccc(O)c1 [M1 derivative, O-desmethyltramadol]
accumulation [1]: approximately 2 fold
analgesic potency relative to the parent drug (relative to tramadol): at least twice

COc1ccc(C(CN(C)C)C2(O)CCCCC2)cc1 (racemic) [Venlafaxine hydrochloride, (R/S)-1-[2-(dimethylamino)-1-(4-methoxyphenyl)ethyl]cyclohexanol]
octanol:water partition coefficient [5]: 0.43
